Literature values, collected in patent publication US9066956B2, “Vaginal ring comprising DHEA or DHEA sulfate and optionally a release-modulating agent of the active principle, useful to increase the ovarian reserve in women and to relieve symptoms associated with menopause” (Universidad de Chile, priority 2011, dated 2015).
Read-outs that look alike come from different tables or passages of the source.

Legend:
[1] = tested on: infertile women with diminished ovarian reserve; settings: versus national U.S. IVF rates 2004

Molecule | clinical pregnancies (women; oral DHEA 75 mg daily up to four months before IVF, control group 11%) | rate of spontaneous abortions (women; oral DHEA 75 mg daily, control group 36%) | increase of clinical pregnancy (women; oral DHEA versus control group) | Reduction of spontaneous abortions ([1]; first fertility center (U.S.)) | Reduction of spontaneous abortions ([1]; second fertility center (Canada)) | DHEA metabolized back to DHEA-S (by sulfatase hydroxysteroid) | daily production of DHEA-S converted to DHEA (women)
C[C@]12CC[C@H](O)CC1=CC[C@@H]1[C@@H]2CC[C@]2(C)C(=O)CC[C@@H]12 [DHEA, dehydroepiandrosterone] | 28% | 20% | at least 150% | 15.0% | 15.2% | 13% | –
dehydroepiandrosterone sulphate [DHEA-S] | – | – | – | – | – | – | 64%
